Measured values as given in patent US4305852A, “Polypeptide compositions” (American Home Products Corporation, priority 1980, dated 1981).
Where a SMILES comes first, the peptide text is derived from it. Where no end group is shown, it is not given here. [ ]: non-standard residue; d: D form.

How the values were obtained:
T lymphocytes = test: T lymphocyte proliferation, 3H-thymidine incorporation; type: cell-based, male CBA/J or NZB mice; settings: 48 h culture
Protocol: T lymphocytes are isolated from spleens of male CBA/J or NZB mice. Cell homogenates are prepared in Hank's balanced salt solution (HBSS). After removal of larger particles and repeated washing of the cells in HBSS they are suspended in minimum essential medium (MEM) and passed through a glass wool column to remove macrophages. The cells are then incubated on a nylon wool column at 37° C., 95% air, 5% CO2, for 45 minutes. The non-adherant T lymphocytes are then eluted from the column, counted, and adjusted to 20×10^6 cells/ml. 50 μl of cells are cultured (37° C., 95% air, 5% CO2) with compound, for 48 hours before the addition of 0.5 μCi. of 3H-thymidine for the last 16 hours of culture. The total volume of the culture system is 200 μl. The cells are then harvested on a multiple automatic sample harvester (Mash II), the glass fiber filter disks placed in 10 ml. of xylene base scintillation fluid, and counted for 1 minute in a liquid scintillation counter. Results are reported as CPM±SE.

cells of the B lineage = settings: in vitro; cited from earlier work
[1] = test system: autologous rosette-forming cells; settings: in vivo, athymic mice; cited from earlier work
murine prothymocytes = settings: in vitro; cited from earlier work

For `CC(=O)O.CC(=O)O.CC(=O)O.CC(C)[C@H](NC(=O)[C@H](CC(=O)O)NC(=O)[C@H](CCCCN)NC(=O)[C@@H](N)CCCNC(=N)N)C(=O)N[C@H](C)C(N)=O` [Arg--Lys--Asp--Val--D--Ala--NH2, L-arginyl-L-lysyl-L-aspartyl-L-valyl-D-alaninamide triacetate] (H-RKDV[dA]-NH2), the “CPM ± SE (3H-thymidine incorporation)” value (T lymphocytes; 0.00075 μg/culture, second experiment (blank 19275 ± 1298)) was 18983 ± 2651 CPM, the “CPM ± SE (3H-thymidine incorporation)” value (T lymphocytes; 0.0015 μg/culture, first experiment (blank 9876 ± 951)) was 20305 ± 2347 CPM and the “CPM ± SE (3H-thymidine incorporation)” value (T lymphocytes; 0.0015 μg/culture, second experiment (blank 19275 ± 1298)) was 22966 CPM. For the same compound, the “CPM ± SE (3H-thymidine incorporation)” value (T lymphocytes; 0.006 μg/culture, first experiment (blank 9876 ± 951)) was 18640 ± 1830 CPM, the “CPM ± SE (3H-thymidine incorporation)” value (T lymphocytes; 0.006 μg/culture, second experiment (blank 19275 ± 1298)) was 28559 ± 3663 CPM and the “CPM ± SE (3H-thymidine incorporation)” value (T lymphocytes; 0.025 μg/culture, first experiment (blank 9876 ± 951)) was 30181 ± 3895 CPM. For the same compound, the “CPM ± SE (3H-thymidine incorporation)” value (T lymphocytes; 0.025 μg/culture, second experiment (blank 19275 ± 1298)) was 25515 ± 2486 CPM and the “CPM ± SE (3H-thymidine incorporation)” value (T lymphocytes; 0.1 μg/culture, first experiment (blank 9876 ± 951)) was 21887 ± 3143 CPM.
In the case of “RKDVY [arginyl-lysyl-aspartyl-valyl-tyrosine]”, the “differentiative induction of cells of the B lineage” value (cells of the B lineage) is given as “inhibited differentiative induction of cells of the B lineage”, the “numbers of autologous rosette-forming cells in spleens” value [1] is given as “reducing the high numbers of autologous rosette-forming cells” and the “differentiation of murine prothymocytes to thymocytes” value (murine prothymocytes) is given as “induced the differentiation of murine prothymocytes to thymocytes”.
